According to PMC9462843 (Protein Science : A Publication of the Protein Society, 2022):

Key:
Format in all cases: biochemical
[1] = molecular target: StcIMPDH (Streptomyces coelicolor IMPDH) (Streptomyces coelicolor, UniProt Q9L0I7); assay: IMPDH activity assay, guanine nucleotide titration (NADH fluorescence); conditions: for K i,app: 0.25 mM ATP present; for effect on the catalytic activity in vitro: nucleotide alone (no ATP)
Procedure: (§1) IMPDH activity was assayed using 384‐well microtiter plates by monitoring the appearance of NADH by fluorescence (λ exc = 340 nm and λ em = 460 nm, using a 10 nm slit window for both excitation and emission).
(§2) The total amount of MgCl2 was adjusted for each nucleotide concentration to keep 1 mM free Mg^2+ constant concentration, as previously described.[6] The experimental data were fitted to the Michaelis–Menten and allosteric sigmoidal equations using GraphPad Prism (GraphPad Software).

[2] = molecular target: T1, BsIMPDH (Bacillus subtilis IMPDH) (Bacillus subtilis, UniProt P21879); assay: as above; conditions: for K i,app: 0.25 mM ATP present; for effect on the catalytic activity in vitro: nucleotide alone (no ATP); for IC50: read-out: Estimated IC50
T1 construct: Open reading frames of the different enzymes were amplified by PCR using genomic DNA as template; 8xHis (N, cleaved yes); made in house; host or cells: E. coli BL21 (DE3)
T1 sequence (P21879 whole entry): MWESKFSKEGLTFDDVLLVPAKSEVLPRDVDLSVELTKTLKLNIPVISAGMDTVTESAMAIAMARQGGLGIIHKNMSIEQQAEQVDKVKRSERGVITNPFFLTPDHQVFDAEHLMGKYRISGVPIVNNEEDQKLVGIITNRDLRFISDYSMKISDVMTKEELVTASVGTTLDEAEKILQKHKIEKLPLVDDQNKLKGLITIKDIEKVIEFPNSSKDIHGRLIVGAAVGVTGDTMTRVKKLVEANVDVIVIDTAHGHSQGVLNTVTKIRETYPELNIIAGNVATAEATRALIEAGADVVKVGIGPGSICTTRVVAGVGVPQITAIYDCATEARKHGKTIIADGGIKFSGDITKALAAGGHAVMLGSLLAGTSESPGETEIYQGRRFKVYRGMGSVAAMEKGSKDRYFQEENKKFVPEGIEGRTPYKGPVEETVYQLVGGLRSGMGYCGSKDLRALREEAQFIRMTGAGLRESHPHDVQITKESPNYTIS
Procedure: as §1, §2

[3] = molecular target: T2, PaIMPDH (Pseudomonas aeruginosa IMPDH) (Pseudomonas aeruginosa, UniProt Q9HXM5); assay: as above; conditions: for effect on the catalytic activity in vitro: nucleotide alone (no ATP); for effect in vitro on the activity: even at millimolar concentrations, in presence or absence of ATP
T2 construct: Open reading frames of the different enzymes were amplified by PCR using genomic DNA as template; 8xHis (N, cleaved yes); made in house; host or cells: E. coli BL21 (DE3)
T2 sequence (Q9HXM5 1-489): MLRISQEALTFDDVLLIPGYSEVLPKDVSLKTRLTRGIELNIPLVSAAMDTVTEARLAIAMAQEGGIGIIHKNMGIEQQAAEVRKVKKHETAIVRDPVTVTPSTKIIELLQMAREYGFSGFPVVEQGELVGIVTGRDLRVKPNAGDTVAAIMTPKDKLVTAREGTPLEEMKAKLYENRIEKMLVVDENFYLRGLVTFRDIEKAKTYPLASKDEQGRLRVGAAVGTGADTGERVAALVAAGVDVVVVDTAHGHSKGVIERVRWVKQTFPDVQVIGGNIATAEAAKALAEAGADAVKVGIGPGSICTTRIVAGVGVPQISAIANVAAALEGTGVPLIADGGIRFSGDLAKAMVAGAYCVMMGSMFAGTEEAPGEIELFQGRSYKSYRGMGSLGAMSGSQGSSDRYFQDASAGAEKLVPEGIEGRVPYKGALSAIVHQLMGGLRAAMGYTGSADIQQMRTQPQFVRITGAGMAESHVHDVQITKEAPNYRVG
Procedure: as §1, §2

[4] = molecular target: T3, EcIMPDH (Escherichia coli IMPDH) (Escherichia coli, UniProt P0ADG7); assay: as above; conditions: for effect on the catalytic activity in vitro: nucleotide alone (no ATP); for effect in vitro on the activity: even at millimolar concentrations, in presence or absence of ATP
T3 construct: Open reading frames of the different enzymes were amplified by PCR using genomic DNA as template; 8xHis (N, cleaved yes); made in house; host or cells: E. coli BL21 (DE3)
T3 sequence (P0ADG7 whole entry): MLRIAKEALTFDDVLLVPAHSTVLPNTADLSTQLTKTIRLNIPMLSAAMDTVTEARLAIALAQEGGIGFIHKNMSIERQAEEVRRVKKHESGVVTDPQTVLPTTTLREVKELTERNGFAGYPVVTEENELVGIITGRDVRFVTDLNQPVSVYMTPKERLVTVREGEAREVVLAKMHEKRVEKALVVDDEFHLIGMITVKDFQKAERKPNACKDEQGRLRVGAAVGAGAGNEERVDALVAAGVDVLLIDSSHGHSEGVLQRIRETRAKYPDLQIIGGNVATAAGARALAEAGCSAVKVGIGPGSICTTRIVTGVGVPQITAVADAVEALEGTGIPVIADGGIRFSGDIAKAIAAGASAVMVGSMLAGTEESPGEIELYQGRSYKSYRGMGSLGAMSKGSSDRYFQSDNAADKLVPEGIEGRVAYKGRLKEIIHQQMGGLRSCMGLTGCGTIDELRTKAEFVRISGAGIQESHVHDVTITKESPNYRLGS
Procedure: as §1, §2

PaIMPDH = molecular target: T4, PaIMPDH (Pseudomonas aeruginosa, UniProt Q9HXM5); assay: GTP titration curves at physiological ATP concentration (Km shift); conditions: read-out: GTP concentration required to duplicate the Km value, constant 3 mM ATP, 0.5 mM NAD, 32°C
T4 construct: Open reading frames of the different enzymes were amplified by PCR using genomic DNA as template; 8xHis (N, cleaved yes); made in house; host or cells: E. coli BL21 (DE3)
Procedure: as §1
(§3) 32 °C in buffer 100 mM Tr i s-HCl,pH8.0,100 mM KCl, 1 mM DTT, 1 mM free MgCl2, […]

EcIMPDH = molecular target: T5, EcIMPDH (Escherichia coli, UniProt P0ADG7); assay: as above; conditions: read-out: GTP concentration needed to duplicate the Km value, constant 3 mM ATP, 0.5 mM NAD, 32°C
T5 construct: Open reading frames of the different enzymes were amplified by PCR using genomic DNA as template; 8xHis (N, cleaved yes); made in house; host or cells: E. coli BL21 (DE3)
T5 sequence (P0ADG7 whole entry): as above
Procedure: as §1, §3

[5] = molecular target: T6, Helicobacter pylori IMPDH (HpIMPDH) (Helicobacter pylori, UniProt P56088); assay: Effects of guanine nucleotides on the catalytic activity of HpIMPDH in vitro; conditions: 0.25 mM ATP + 0.5 mM (p)ppGpp, 32°C (Figure S12)
T6 construct: Open reading frames of the different enzymes were amplified by PCR using genomic DNA as template; 8xHis (N, cleaved yes); made in house; host or cells: E. coli BL21 (DE3)
T6 sequence (P56088 1-481): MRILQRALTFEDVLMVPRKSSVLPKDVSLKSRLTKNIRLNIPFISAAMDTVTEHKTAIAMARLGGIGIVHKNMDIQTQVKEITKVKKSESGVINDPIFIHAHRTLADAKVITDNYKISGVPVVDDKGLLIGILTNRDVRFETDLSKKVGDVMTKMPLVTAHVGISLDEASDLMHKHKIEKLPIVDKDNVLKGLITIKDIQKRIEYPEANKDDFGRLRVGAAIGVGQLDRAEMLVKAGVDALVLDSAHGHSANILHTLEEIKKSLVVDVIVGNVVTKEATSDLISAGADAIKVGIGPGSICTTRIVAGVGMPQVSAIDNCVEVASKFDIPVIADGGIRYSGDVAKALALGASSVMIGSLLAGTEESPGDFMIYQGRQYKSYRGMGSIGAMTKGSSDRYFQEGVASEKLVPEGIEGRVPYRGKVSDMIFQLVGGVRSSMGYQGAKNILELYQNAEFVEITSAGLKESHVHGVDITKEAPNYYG
Procedure: as §1
Supplemental Figure 12. Effects of guanine nucleotides on the catalytic activity of HpIMPDH in vitro.Normalized initialvelocity (V0) values calculated as the V0 in the absence of nucleotides divided by the corresponding values inthe presence of the indicated ones. The experiment was performed at 32 °C in buffer 100 mM Tr i s-HCl, pH 8.0, 100 mM KCl, 1 mM DTT, 1 mM free MgCl2, 50 nM enzyme, 0.5 mM NAD+ […]
Nucleotide concentrations were (from left to right): 0.5 mM
The Vo value used for normalization was 6.83 ± 0.1 nM/sec.
(1 picture or pasted object on this page, not shown here)

StcIMPDH (Streptomyces coelicolor IMPDH), sequence (Q9L0I7 entry or part of it): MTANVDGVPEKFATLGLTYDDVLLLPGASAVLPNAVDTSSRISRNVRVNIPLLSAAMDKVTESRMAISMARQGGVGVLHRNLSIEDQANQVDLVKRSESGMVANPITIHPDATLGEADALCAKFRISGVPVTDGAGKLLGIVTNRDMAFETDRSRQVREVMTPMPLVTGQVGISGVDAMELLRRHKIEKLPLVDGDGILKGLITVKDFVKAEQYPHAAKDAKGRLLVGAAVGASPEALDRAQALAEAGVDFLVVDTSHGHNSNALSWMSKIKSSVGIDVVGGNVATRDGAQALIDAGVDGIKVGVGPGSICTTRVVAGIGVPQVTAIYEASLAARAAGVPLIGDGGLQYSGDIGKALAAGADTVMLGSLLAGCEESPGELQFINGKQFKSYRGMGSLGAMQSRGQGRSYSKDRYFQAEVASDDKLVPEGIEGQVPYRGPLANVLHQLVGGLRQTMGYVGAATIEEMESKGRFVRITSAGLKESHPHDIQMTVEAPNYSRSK

Molecule | K i,app ([1]; StcIMPDH) | effect on the catalytic activity in vitro ([1]; StcIMPDH) | K i,app ([2]; BsIMPDH) | effect on the catalytic activity in vitro ([2]; BsIMPDH) | K i,app ([3]; 0.25 mM ATP present) | effect on the catalytic activity in vitro [3] | K i,app ([4]; 0.25 mM ATP present) | effect on the catalytic activity in vitro [4] | GTP concentration doubling Km (PaIMPDH) [µM] | GTP concentration doubling Km (EcIMPDH) [µM] | IC50 [1] [µM] | inhibition of catalytic activity (potency range) ([1]; StcIMPDH, combined with ATP) | inhibition of catalytic activity (potency range) ([2]; BsIMPDH, combined with ATP) | IC50 [2] [µM] | effect in vitro on the activity [3] | effect in vitro on the activity [4] | effect on catalytic activity of HpIMPDH [5]
Nc1nc2c(ncn2[C@@H]2O[C@H](COP(=O)(O)OP(=O)(O)O)[C@@H](O)[C@H]2O)c(=O)[nH]1 [GDP] | millimolar range | did not have a significant effect | millimolar range | did not have a significant effect | mid‐micromolar range | did not have a significant effect | mid‐micromolar range | did not have a significant effect |  |  |  |  |  |  |  |  | 
Nc1nc2c(ncn2[C@@H]2O[C@H](COP(=O)(O)OP(=O)(O)OP(=O)(O)O)[C@@H](O)[C@H]2O)c(=O)[nH]1 [GTP] | millimolar range | did not have a significant effect | millimolar range | did not have a significant effect |  | did not have a significant effect |  | did not have a significant effect | 800 | 1300 |  |  |  |  |  |  | 
Nc1nc2c(ncn2[C@@H]2O[C@H](COP(=O)(O)OP(=O)(O)O)[C@@H](OP(=O)(O)OP(=O)(O)O)[C@H]2O)c(=O)[nH]1 [ppGpp] |  | no significant effect |  | no significant effect |  | no significant effect |  | no significant effect |  |  | 2 ± 0.03 | low micromolar range | low micromolar range | 8.9 ± 0.4 | no detectable effect | no detectable effect | 
Nc1nc2c(ncn2[C@@H]2O[C@H](COP(=O)(O)OP(=O)(O)OP(=O)(O)O)[C@@H](OP(=O)(O)OP(=O)(O)O)[C@H]2O)c(=O)[nH]1 [pppGpp] |  |  |  |  |  |  |  |  |  |  | 1.4 ± 0.03 |  |  | 11.4 ± 1.2 | no detectable effect | no detectable effect | 
(p)ppGpp |  |  |  |  |  |  |  |  |  |  |  |  |  |  |  |  | allosteric inhibition
